Measured values taken from patent US20040010001A1, “Methods and compositions for modulating cell proliferation and cell death” (priority 1999, published 2004).
Where two headings read alike, the source gives them in different places.

Key:
Assay type in all cases: cell-based
[1] = test system: rat primary tumors, histocultures; experiment: Drug effect in histocultures of rat primary tumors (inhibition of 3H-thymidine incorporation); settings: Histocultures, Primary, 96 hours, read-out: Concentration producing 50% inhibition
[2] = test system: rat primary tumor cells, monolayers; experiment: Drug effect in monolayers of rat primary tumor cells (inhibition of bromodeoxyuridine incorporation); settings: 96 h, read-out: Concentration producing 50% inhibition
[3] = test system: rat lymph node metastasis cells, monolayers; experiment: Drug effect in monolayers of rat lymph node metastasis cells (inhibition of bromodeoxyuridine incorporation); settings: 96 h, read-out: Concentration producing 50% inhibition
[4] = test system: rat lung metastasis cells, monolayers; experiment: Drug effect in monolayers of rat lung metastasis cells (inhibition of bromodeoxyuridine incorporation); settings: 96 h, read-out: Concentration producing 50% inhibition
[5] = test system: Human prostate PC3 tumor cells; experiment: aFGF/bFGF-induced resistance and reversal by suramin, sulforhodamine B assay
Experimental: The experimental conditions are described briefly below. […] Cell number was measured using the sulforhodamine B assay which measures the total protein concentration. […] The FGF-induced resistance was dependent on the FGF concentrations, with a higher resistance at higher FGF concentrations.

[6] = test system: Human breast BC19 (subline of MCF7 transfected with mdr1); experiment: FGF-induced resistance, inhibition of BrdU incorporation; settings: read-out: Drug concentration needed to produce 50% inhibition
Method in brief: (§1)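 Monolayers were pretreated for 96 h with human recombinant aFGF and/or bFGF in medium with 1% FBS (protein adjusted to 2 mg/ml, renewed every other day) and then drug-treated for 96 h. Antiproliferative effect was read as inhibition of BrdU incorporation.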

[7] = test system: Human breast MCF7; experiment: as above; settings: read-out: Drug concentration needed to produce 50% inhibition
Method in brief: as §1

[8] = test system: Human colon HT-29; experiment: as above; settings: read-out: Drug concentration needed to produce 50% inhibition
Method in brief: as §1

[9] = test system: Human lung A459; experiment: as above; settings: read-out: Drug concentration needed to produce 50% inhibition
Method in brief: as §1

[10] = test system: Human pharynx FaDu; experiment: as above; settings: read-out: Drug concentration needed to produce 50% inhibition
Method in brief: as §1

[11] = test system: Human prostate PC3; experiment: as above; settings: Homo sapiens, read-out: Drug concentration needed to produce 50% inhibition
Method in brief: as §1

[12] = test system: Rat prostate MAT-LyLu; experiment: as above; settings: read-out: Drug concentration needed to produce 50% inhibition
Method in brief: as §1

[13] = no suramin, relative to control
[14] = 96 h, r-aFGF + r-bFGF 0.04 ± 1 ng/ml
[15] = 96 h, r-aFGF + r-bFGF 0.08 ± 1 ng/ml
[16] = 96 h, r-aFGF + r-bFGF 0.32 ± 1 ng/ml
[17] = 96 h, r-aFGF + r-bFGF 0.64 ± 1 ng/ml
[18] = 96 h, r-aFGF + r-bFGF 1 ± 1 ng/ml

For `O=c1[nH]cc(F)c(=O)[nH]1` [5-Fluorouracil], the IC50 [1] was 33000 ± 12000 nM, the IC50 ([2]; Monolayers (passage 0)) was 790 ± 40 nM and the IC50 ([2]; Monolayers (passage 1)) was 850 ± 30 nM. The IC50 ([2]; Monolayers (passage 2)) was 790 ± 60 nM, the IC50 ([2]; Monolayers (passage 3)) was 780 ± 40 nM and the IC50 ([3]; Monolayers (passage 0)) was 1900 ± 60 nM. The IC50 ([3]; Monolayers (passage 1)) was 1290 ± 60 nM, the IC50 ([3]; Monolayers (passage 2)) was 1090 ± 40 nM and the IC50 ([3]; Monolayers (passage 3)) was 830 ± 100 nM. It also gave an IC50 ([4]; Monolayers (passage 0)) of 2840 ± 240 nM, an IC50 ([4]; Monolayers (passage 1)) of 1520 ± 80 nM and an IC50 ([4]; Monolayers (passage 2)) of 1200 ± 40 nM. For the same molecule, the IC50 ([4]; Monolayers (passage 3)) was 810 ± 40 nM, the IC50 ([5]; Homo sapiens, read-out: IC50, Control (drug treatment only, without FGF treatment), No suramin, drug 96 hours) was 2210 nM and the IC50 ([5]; Homo sapiens, read-out: IC50, aFGF 0.3 ng/ml + bFGF 1 ng/ml, No suramin, FGF pretreatment 96 hours, drug 96 hours) was 5050 nM. For the same molecule, the IC50 ([5]; Homo sapiens, read-out: IC50, aFGF 1 ng/ml + bFGF 3 ng/ml, No suramin, FGF pretreatment 96 hours, drug 96 hours) was 12600 nM, the “Resistance, Folds, aFGF 0.3 ng/ml + bFGF 1 ng/ml” value [5, 13] was 2.29 Folds and the “Resistance, Folds, aFGF 1 ng/ml + bFGF 3 ng/ml” value [5, 13] was 5.71 Folds. The IC50 ([5]; read-out: IC50, Control (without FGF treatment), Suramin, 15 μM, drug 96 hours with 15 μM suramin) was 2390 nM, the IC50 ([5]; read-out: IC50, aFGF 0.3 ng/ml + bFGF 1 ng/ml, With suramin, FGF pretreatment 96 hours, drug 96 hours with 15 micromolar suramin) was 2160 nM and the IC50 ([5]; read-out: IC50, aFGF 1 ng/ml + bFGF 3 ng/ml, With suramin, FGF pretreatment 96 hours, drug 96 hours with 15 micromolar suramin) was 2140 nM. For the same molecule, the IC50 ([6]; r-bFGF 0 ng/ml) was 975 nM, the IC50 ([6]; r-bFGF 0.01 ng/ml) was 1070 nM and the IC50 ([6]; r-bFGF 0.1 ng/ml) was 1370 nM. It also gave an IC50 ([6]; r-bFGF 1 ng/ml) of 1510 nM, an IC50 ([7]; MCF7, r-bFGF 0 ng/ml) of 991 nM and an IC50 ([7]; MCF7, r-bFGF 0.01 ng/ml) of 1030 nM. For the same molecule, the IC50 ([7]; MCF7, r-bFGF 0.1 ng/ml) was 1370 nM, the IC50 ([7]; MCF7, r-bFGF 1 ng/ml) was 1510 nM and the IC50 ([8]; HT-29, 96 h, r-aFGF + r-bFGF 0 ng/ml) was 1640 nM. For the same molecule, the IC50 ([8]; HT-29, 96 h, r-aFGF + r-bFGF 0.04 ± 1 ng/ml) was 1760 nM, the IC50 ([8]; HT-29, 96 h, r-aFGF + r-bFGF 0.08 ± 1 ng/ml) was 1550 nM and the IC50 ([8]; HT-29, 96 h, r-aFGF + r-bFGF 0.16 ± 1 ng/ml) was 1610 nM. The IC50 ([8]; HT-29, 96 h, r-aFGF + r-bFGF 0.32 ± 1 ng/ml) was 2770 nM, the IC50 ([8]; HT-29, 96 h, r-aFGF + r-bFGF 0.64 ± 1 ng/ml) was 5210 nM and the IC50 ([8]; HT-29, 96 h, r-aFGF + r-bFGF 1 ± 1 ng/ml) was 7070 nM. It also gave an IC50 ([8]; HT-29, r-aFGF 0 ng/ml) of 1640 nM, an IC50 ([8]; HT-29, r-aFGF 1 ng/ml) of 1620 nM and an IC50 ([8]; HT-29, r-aFGF 10 ng/ml) of 1580 nM. The IC50 ([8]; HT-29, r-aFGF 50 ng/ml) was 1630 nM, the IC50 ([8]; HT-29, r-bFGF 0 ng/ml) was 2090 nM and the IC50 ([8]; HT-29, r-bFGF 1 ng/ml) was 2360 nM. For the same molecule, the IC50 ([8]; HT-29, r-bFGF 10 ng/ml) was 2230 nM, the IC50 ([8]; HT-29, r-bFGF 50 ng/ml) was 2250 nM and the IC50 ([9]; A459, 96 h, r-aFGF + r-bFGF 0 ng/ml) was 862 nM. For the same molecule, the IC50 ([9]; A459, 96 h, r-aFGF + r-bFGF 0.04 ± 1 ng/ml) was 908 nM, the IC50 ([9]; A459, 96 h, r-aFGF + r-bFGF 0.08 ± 1 ng/ml) was 995 nM and the IC50 ([9]; A459, 96 h, r-aFGF + r-bFGF 0.16 ± 1 ng/ml) was 1010 nM. It also gave an IC50 ([9]; A459, 96 h, r-aFGF + r-bFGF 0.32 ± 1 ng/ml) of 1620 nM, an IC50 ([9]; A459, 96 h, r-aFGF + r-bFGF 0.64 ± 1 ng/ml) of 2090 nM and an IC50 ([9]; A459, 96 h, r-aFGF + r-bFGF 1 ± 1 ng/ml) of 3630 nM. The IC50 ([9]; A459, r-bFGF 0 ng/ml) was 870 nM, the IC50 ([9]; A459, r-bFGF 1 ng/ml) was 1010 nM and the IC50 ([9]; A459, r-bFGF 10 ng/ml) was 1380 nM. The IC50 ([9]; A459, r-bFGF 50 ng/ml) was 1710 nM, the IC50 ([10]; 96 h, r-aFGF + r-bFGF 0 ng/ml) was 5760 nM and the IC50 [10, 14] was 5440 nM. The IC50 [10, 15] was 5440 nM, the IC50 ([10]; 96 h, r-aFGF + r-bFGF 0.16 ± 1 ng/ml) was 5470 nM and the IC50 [10, 16] was 5560 nM. For the same molecule, the IC50 [10, 17] was 9690 nM, the IC50 [10, 18] was 15200 nM and the IC50 ([10]; r-aFGF 0 ng/ml) was 5750 nM. It also gave an IC50 ([10]; r-aFGF 1 ng/ml) of 5500 nM, an IC50 ([10]; r-aFGF 10 ng/ml) of 5450 nM and an IC50 ([10]; r-aFGF 50 ng/ml) of 5250 nM. It also gave an IC50 ([10]; r-bFGF 0 ng/ml) of 4340 nM, an IC50 ([10]; r-bFGF 1 ng/ml) of 4560 nM and an IC50 ([10]; r-bFGF 10 ng/ml) of 4790 nM. For the same molecule, the IC50 ([10]; r-bFGF 50 ng/ml) was 4250 nM, the IC50 [11, 14] was 761 nM and the IC50 [11, 15] was 1150 nM. It also gave an IC50 [11, 16] of 2540 nM, an IC50 [11, 17] of 3770 nM and an IC50 [11, 18] of 5740 nM. It also gave an IC50 ([11]; 96 h, r-aFGF + r-bFGF) of 1640 nM, an IC50 ([11]; r-aFGF 0 ng/ml) of 810 nM and an IC50 ([11]; r-aFGF 1 ng/ml) of 815 nM. It also gave an IC50 ([11]; r-aFGF 10 ng/ml) of 695 nM, an IC50 ([11]; r-aFGF 50 ng/ml) of 732 nM and an IC50 ([11]; r-bFGF 0 ng/ml) of 741 nM. The IC50 ([11]; r-bFGF 1 ng/ml) was 846 nM, the IC50 ([11]; r-bFGF 10 ng/ml) was 2410 nM and the IC50 ([11]; r-bFGF 50 ng/ml) was 4300 nM. For the same molecule, the IC50 ([12]; r-bFGF 0 ng/ml) was 746 nM, the IC50 ([12]; r-bFGF 1 ng/ml) was 1050 nM and the IC50 ([12]; r-bFGF 10 ng/ml) was 1990 nM. For the same molecule, the IC50 ([12]; r-bFGF 50 ng/ml) was 3250 nM.
